Results taken from patent US20070112018A1, “Treatment of peripheral arterial occlusive disease” (priority 2005, published 2007).
Read-outs that look alike come from different tables or passages of the source.

Key:
[1] = tested on: C. pneumoniae; experiment: Potency against C. pneumoniae compared with roxithromycin
Excerpt: The use of rifalazil in the treatment of PAOD is supported by both preclinical and clinical lines of evidence.

[2] = Phase 1 pharmacokinetic analyses by gender, single or multiple doses 2.5-50 mg; type: in vivo, human
Experimental: There were no significant differences between males and females for AUC0-∞ when data were normalized to 1 mg/kg following single doses of 2.5 to 50 mg rifalazil (see FIG. 3 and FIG. 4).
The Vdβ/F was large indicating extensive distribution in the body. […] The mean minimum plasma concentrations (Cmin) of rifalazil over time during 5 days of dosing with 2.5 and 5 mg rifalazil increased from Days 2-6 in both males and females at both dose levels.

[3] = Non-clinical oral pharmacokinetics, all species evaluated; type: in vivo; conditions: oral administration
Experimental: Since the PK profile of rifalazil has been studied in man, only a brief summary of the non-clinical PK is provided. Overall, the absorption, distribution, metabolism, and elimination of rifalazil observed in the animals studied are similar to those observed in man.
Peak plasma concentrations were observed from 4 to 18 hours after oral administration.

[4] = Tissue distribution in rats after a single oral dose (Study 6510-109); type: in vivo, rat; conditions: for Kp: oral, 3 mg/kg, species not given
Experimental: Distribution to the majority of tissues was higher than observed plasma levels.
In rats and dogs, the Vdβ/F following oral administration was 40-80 L/kg. […] The highest mean Cmax observed was in the wall of the GI tract and occurred approximately 1 hour post-dose. […] A large tissue compartment of rifalazil is considered important for efficacy against Chlamydia given the intracellular nature of Chlamydia infection.

[5] = Placebo-controlled study of 30 mg and 100 mg in healthy volunteers, adverse events; type: in vivo, human
Experimental: In a placebo-controlled study of 30 mg and 100 mg in […], […] received the 30 mg dose of rifalazil. Sixty-two percent of patients (5/8) reported AEs while 33% of placebo subjects (3/9) reported AEs. The only AE of note reported in this rifalazil dose group was headache (38%, […]) compared to the placebo-treated group (11%, 1/9 subjects). […] However, this baseline value was not considered clinically significant nor were subsequent nadir values obtained on Days 3 and 7 (3.8×10^3 cells/mm^3).

[6] = Healthy volunteers, 25 or 50 mg once a week for 4 weeks, adverse events; type: in vivo, human
Experimental: In one study, healthy volunteers received 25 or 50 mg once a week for 4 weeks. The overall incidence of AEs was 33% after the first weekly dose, 12% after the second and third weekly dose, and 0% at the fourth weekly dose. No subject discontinued the study due to AEs, and no serious AEs were reported in this study. The predominant AEs reported in the rifalazil group but not in the placebo group included: back pain (2/6. 33%), chills (3/6, 50%), neck pain (1/6. 17%), insomnia, and a range of gastrointestinal (GI) disturbances such as anorexia, nausea, thirst and vomiting (all in 1/6 patients, 17%).
The lowest individual value for subjects receiving 25 mg/week was 2.2×10^3/mm^3 (Day 25), and for 50-mg/week subjects, 2.3×10^3/mm^3 (Day 11). All values returned to baseline within 2 weeks of cessation of dosing. […] The above normal values at 50 mg/week occurred in 1 subject, and were of moderate Grade 2 severity during the interval from approximately Day 15 to Day 78. […] All values returned to baseline levels within 2 weeks of cessation of dosing.
The phenomenon of accommodation or tolerance with repeat weekly dosing of rifalazil became evident during the course of the study for both the 25-mg and 50-mg doses. In the 25-mg dosage group, the peak incidence of AEs occurred in the first week and decreased substantially over the remaining weeks.

[7] = 25 mg cumulative doses over one week, adverse events by regimen; type: in vivo, human
Experimental: Different dosing regimens of rifalazil that achieve 25-mg cumulative doses in 1 week also provide relevant clinical information on the safety of 25 mg administered as a single dose once per week.
For a cumulative dose of 25 mg, the overall incidence of AEs was somewhat lower when rifalazil was administered as 5 mg QD for 5 days, compared with a single dose of 25 mg (75%). Similarly, the overall incidence of drug-related AEs was lower when 25 mg was administered as a 5 mg for 5 days (63%), vs. 12.5 mg as 2 doses (separated by 72 hours) (70%), and as a single dose of 25 mg (75%).

[8] = tested on: C. pneumoniae; experiment: Rabbit model of atherosclerosis accelerated by C. pneumoniae infection, cholesterol diet; conditions: C. pneumoniae-infected rabbits; rifalazil 5 mg/kg or azithromycin 30 mg/kg PO daily 1 week then twice weekly 6 weeks; 19 weeks after beginning treatment
Experimental: Thirty received three separate C. pneumoniae inoculations performed at 3-week intervals. Similarly, 15 control rabbits were intranasally inoculated with 1 mL of normal saline under the same conditions.
Nineteen weeks after beginning antibiotic treatment, the rabbits were euthanized. After euthanasia, hearts were examined histologically and by immunofluorescence. Animal serum samples were also examined for seropositivity to the infecting organism.

In the case of `CO[C@H]1/C=C/O[C@@]2(C)Oc3c(C)c(O)c4c(=O)c(c5oc6cc(N7CCN(CC(C)C)CC7)cc(O)c6nc-5c4c3C2=O)NC(=O)/C(C)=C\C=C\[C@H](C)[C@H](O)[C@@H](C)[C@@H](O)[C@@H](C)[C@H](OC(C)=O)[C@@H]1C` [rifalazil, 3′-hydroxy-5′-(4-isobutyl-1-piperazinyl) benzoxazinorifamycin], the “potency against C. pneumoniae relative to roxithromycin” value [1] is reported as 2000 times, the steady state ([2]; after 5 days of dosing with 2.5 and 5 mg) is reported as “does not appear that steady state was reached” and the half-life ([2]; both sexes, human, plasma, oral, following single doses, read-out: mean elimination t1/2) is reported as 100 to 150 h. For the same molecule, the half-life ([2]; both sexes, human, plasma, oral, multiple dosing, up to 5 days, read-out: mean elimination t1/2) was 87 to 174 h, the half-life ([2]; both sexes, human, plasma, oral, read-out: t1/2 (converted)) was about 100 h and the Tmax ([2]; both sexes, human, plasma, oral, single or multiple doses 2.5-50 mg, males and females, read-out: mean time to maximum concentration (Tmax)) was 4 to 6 h. The Vdβ/F ([2]; in vivo) was “large”, the “exposure (mean Cmax and AUC0-∞) as a function of dose” value ([2]; males and females, 2.5 to 50 mg, increase not dose proportional) was “increased with rifalazil dose” and the “Cmax and AUC as a function of dose” value [3] was “dose-dependent but not dose-proportional”. For the same molecule, the Kp ([4]; rat, liver, read-out: tissue to plasma ratio (AUC), liver) was 33.7, the Kp ([4]; rat, testes, read-out: tissue to plasma ratio (AUC), testes) was 4.9 and the concentration at 1 h ([4]; rat, wall of the GI tract, rats, single oral 3 mg/kg, at 1 hour) was 5400 ng/g. The “tissue concentration, spleen” value ([4]; rats, single oral 3 mg/kg, at 8-12 hours post dose) was 5.1-9.3 μg/gm, the headache ([5]; 30 mg single oral dose (3/5 subjects)) was 38% and the “patients reporting AEs” value ([5]; 30 mg single oral dose (5/8)) was “Sixty-two”. For the same molecule, the “WBC count nadir values, one subject” value ([5]; 30 mg single oral dose, Days 3 and 7, baseline 4.3×10^3) was 3.8×10^3 cells/mm^3, the “subjects with low WBC counts” value ([6]; 25 mg/week) was “three of six” and the tolerability ([6]; 25 mg/week) was “fairly well tolerated”. For the same molecule, the “lowest individual WBC value” ([6]; 25 mg/week, Day 25) was 2.2×10^3 /mm^3, the “subjects with low WBC counts” value ([6]; 50 mg/week) was 6 of 8 and the tolerability ([6]; 50 mg/week) was “not considered well tolerated”. The “lowest individual WBC value” ([6]; 50 mg/week, Day 11) was 2.3×10^3 /mm^3, the “mean AST and ALT values” ([6]; 50 mg/week, not in the 25 mg/week group) was “transient increase” and the “subjects with Grade 4 lymphocyte toxicity” value ([6]; 25-mg/week) was 1 subject. For the same molecule, the “time for WBC values to return to baseline after cessation of dosing” value ([6]; 25 and 50 mg/week) was at most 2 weeks, the “subjects with Grade 4 lymphocyte toxicity” value ([6]; 50-mg/week) was 3 subjects and the “overall incidence of AEs” value ([6]; after the first weekly dose) was 33%. The “overall incidence of AEs” value ([6]; after the second and third weekly dose) was 12%, the “overall incidence of AEs” value ([6]; at the fourth weekly dose) was 0% and the neck pain ([6]; rifalazil group (1/6)) was 17%. For the same molecule, the back pain ([6]; rifalazil group (2/6)) was 33%, the chills ([6]; rifalazil group (3/6)) was 50% and the “insomnia, anorexia, nausea, thirst and vomiting (each)” value ([6]; rifalazil group (all in 1/6 patients)) was 17%. The asthenia ([6]; rifalazil-treated groups) was 33%, the dizziness ([6]; rifalazil-treated groups) was 50% and the fever ([6]; rifalazil-treated groups) was 67%. For the same molecule, the headache ([6]; rifalazil-treated groups) was 67%, the pain ([6]; rifalazil-treated groups) was 50% and the “incidence of flu-like symptoms” value ([7]; 5 mg QD for 5 days (5/15 patients)) was 33%. The “overall incidence of drug-related AEs” value ([7]; 5 mg for 5 days) was 63%, the “overall incidence of drug-related AEs” value ([7]; 12.5 mg as 2 doses separated by 72 hours) was 70% and the “incidence of flu-like symptoms” value ([7]; 12.5 mg×2 dose regimen) was 15%. The “incidence of flu-like symptoms” value ([7]; 25 mg single-dose (3/16 patients)) was 19%, the “overall incidence of AEs” value ([7]; single dose of 25 mg) was 75% and the “overall incidence of drug-related AEs” value ([7]; single dose of 25 mg) was 75%. For the same molecule, the “Plaque Area Stenosis (%)” value [8] was 24.2%.
